# Results from US10287279B2, “Inhibitors of human 12/15-lipoxygenase” (THE GENERAL HOSPITAL CORPORATION, priority 2013, dated 2019).
# “Also recorded” adds a separate entry of the source. Where two headings read alike, the source gives them in different places.
# How the values were obtained:
# [1] = molecular target: human platelet 12-lipoxygenase (12-LOX) (Homo sapiens (Human), UniProt P18054); assay: Lipoxygenase UV-Vis assay, 12-LOX; assay type: biochemical; details: selectivity profiling
# Experimental: (§1) Human 5-lipoxygenase (5-LOX) was expressed as a non-tagged protein and used as a crude ammonium sulfate protein fraction, as published previously.^77
# (§2) The inhibitor compounds were screened initially using one concentration point on a Perkin-Elmer Lambda 40 UV-Vis spectrometer. […] The reactions were initiated by adding either of ˜40 nM 12-LOX, 40 nM 12/15-LOX, 0.5 μM 15-LOX-2 or ˜200 nM 5-LOX (ammonium sulfate suspension) to a cuvette with a 2 mL reaction buffer constantly stirred using a magnetic stir bar at room temperature (22° C.). […] Inhibitors were stored at −20° C. in DMSO.
# [2] = system: mouse hippocampal HT22 cells; assay: HT22 cell culture assay, glutamate-induced cell death (LDH release); assay type: cell-based; details: for protection against oxidative glutamate toxicity in HT22 cells: 5 mM glutamate, increasing amounts or concentration not stated
# Description: Glutamate-induced oxidative stress^67-69 leads to time-dependent cell death mediated by 12/15-LOX in both immature primary neurons and mouse hippocampal HT22 cells.^38,46,70 Primary neurons require a lengthy isolation procedure and also show relatively modest increases in cell death in this assay, indicating they are not suited for a high-throughput testing approach. In contrast, HT22 cells grow quickly and consistently feature low cell death under control conditions, but a majority of cells die after glutamate treatment (50-100%). This assay can be adapted to 96-well plates, allowing for moderate to high throughput against the screened compounds. The characteristic Z′ score used to evaluate the technical quality and suitability as screening tool averaged 0.77 over ten experiments (SD=0.13; range, 0.49-0.94), where values above 0.5 indicate an excellent assay.^71
# Treatment consisted of exchanging the medium to 100 μl fresh culturing medium and adding 5 mM glutamate (stock solution 0.5 M in PBS) in the presence or absence of DMSO (maximum 0.1% final concentration) as control or the indicated concentrations of 1. […] Three independent experiments were evaluated. […] The eicosanoids containing fractions were transferred to scintillation vials followed by addition of perdeuterated 13-HODE (13-d31-HODE), as an internal control for extraction and 1.5% glacial acetic acid for protein precipitation. […] The dry samples were then re-constituted in methanol and an internal control 12-deuterated (d8)-HETE (12-d8-HETE), was added to each sample for detector response variation and it was assumed that the change in detector response for 12-HETE and 12-d8-HETE would be similar. […] The Collision Induced Dissociation (CID) was used for MS-MS with collision energy of 35 eV.
# [3] = system: mouse distal MCAO model of permanent focal ischemia; parameters: species or system C57B16J mice; details: in vivo
# Experimental: To study 1 in a model of distal middle cerebral artery occlusion (distal MCAO), ^74 C57B16J mice were treated with ferric chloride (FeCl3) to cause occlusion of the distal middle cerebral artery. […] The body temperature was monitored by a rectal probe and maintained at 37±0.3° C. by a homoeothermic blanket control unit. Briefly, mice were placed in a stereotaxic frame, the scalp was opened and right temporal muscle was dissected. The area between zygomatic arch and squamous bone was thinned by a high-speed drill and cooled with saline. The trace of MCA was visualized and thin bony film was lifted up by forceps. After that a laser-Doppler flowmetry probe was placed 2 mm posterior, 6 mm lateral to the bregma to monitor the regional cerebral blood flow (rCBF). After obtaining a stable epoch of the pre-ischemic rCBF, a piece of 10% FeCl3 saturated filter paper was placed over the intact dura mater along the trace of MCA and the rCBF was continuously monitored during the next 3 hours. After 2 hours of ischemia, either 50 mg/kg 1, or DMSO vehicle was injected intraperitoneally. Following sacrifice at 24 hours, brains were sectioned into 1 mm slices, and infarct sizes were determined by staining with 2,3,5-triphenyltetrazolium chloride (TTC), using the indirect method (infarct volume=contralateral volume minus uninfarcted ipsilateral volume). […]
# [4] = system: warfarin-pretreated mice subjected to transient focal ischemia; assay: Warfarin-associated hemorrhage following experimental stroke (transient focal ischemia); assay type: in vivo, mouse
# Experimental: A) In warfarin-pretreated mice subjected to transient focal ischemia with 3 h occlusion, 50 mg/kg ML351 was administered by i.p. injection 3 h after onset of ischemia (FIG. 9A). This mimics the situation of a patient on warfarin who experiences a severe stroke with hemorrhagic transformation.
# B) To investigate if administering tPA to patients with an ischemic stroke who are on warfarin can be made safe, warfarin-pretreated mice were subjected to 2 h of transient focal ischemia, then treated with tPA 4 h after onset of ischemia, and administered 50 mg/kg ML351 by i.p. injection concurrently with tPA.
# [5] = system: filament model of transient focal ischemia; assay: Filament model of transient focal ischemia; assay type: in vivo, mouse; details: 90 minutes ischemia, sacrifice at 24 hours
# [6] = PAMPA permeability
# [7] = Caco-2 permeability; details: human
# [8] = Mouse plasma stability
# [9] = Aqueous kinetic solubility; details: PBS buffer (pH 7.4)
# [10] = Stability in aqueous solutions; details: pH 2, pH 7.4, pH 9
# [11] = In vivo PK (mouse) at 30 mpk IP
# [12] = Microsomal stability, rat liver microsomes; details: absence of NADPH; 1 hr period; species not distinguished
# [13] = molecular target: human reticulocyte 15-lipoxygenase-1 (12/15-LOX) (Homo sapiens (Human), UniProt P16050); assay: Lipoxygenase UV-Vis cuvette-based assay, 12/15-LOX; assay type: biochemical; details: for 12/15-LOX inhibition in words: SAR discussion, human 12/15-LOX
# Sequence of human reticulocyte 15-lipoxygenase-1 (12/15-LOX) (P16050 whole entry): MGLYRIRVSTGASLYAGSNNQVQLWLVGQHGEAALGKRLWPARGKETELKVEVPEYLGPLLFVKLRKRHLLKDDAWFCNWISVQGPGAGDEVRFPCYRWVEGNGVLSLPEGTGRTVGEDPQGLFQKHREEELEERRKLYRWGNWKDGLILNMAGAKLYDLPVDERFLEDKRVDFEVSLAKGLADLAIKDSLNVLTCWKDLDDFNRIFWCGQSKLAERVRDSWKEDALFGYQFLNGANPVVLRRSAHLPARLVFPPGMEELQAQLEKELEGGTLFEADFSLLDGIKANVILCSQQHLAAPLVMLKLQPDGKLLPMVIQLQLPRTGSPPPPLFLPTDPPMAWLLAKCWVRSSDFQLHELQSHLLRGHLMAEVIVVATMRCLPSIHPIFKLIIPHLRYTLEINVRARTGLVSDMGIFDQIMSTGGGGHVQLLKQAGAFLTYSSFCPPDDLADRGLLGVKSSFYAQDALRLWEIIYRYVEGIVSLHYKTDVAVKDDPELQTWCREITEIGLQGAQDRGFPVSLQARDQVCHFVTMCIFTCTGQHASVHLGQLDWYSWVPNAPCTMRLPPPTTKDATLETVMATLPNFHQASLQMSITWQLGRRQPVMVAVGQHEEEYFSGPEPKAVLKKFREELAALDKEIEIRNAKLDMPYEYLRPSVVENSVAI
# Experimental: as §1, §2
# [14] = molecular target: Human 5-lipoxygenase (5-LOX) (Homo sapiens (Human), UniProt P09917); assay: Lipoxygenase UV-Vis assay, 5-LOX; assay type: biochemical; details: selectivity profiling
# Sequence of Human 5-lipoxygenase (5-LOX) (P09917 whole entry): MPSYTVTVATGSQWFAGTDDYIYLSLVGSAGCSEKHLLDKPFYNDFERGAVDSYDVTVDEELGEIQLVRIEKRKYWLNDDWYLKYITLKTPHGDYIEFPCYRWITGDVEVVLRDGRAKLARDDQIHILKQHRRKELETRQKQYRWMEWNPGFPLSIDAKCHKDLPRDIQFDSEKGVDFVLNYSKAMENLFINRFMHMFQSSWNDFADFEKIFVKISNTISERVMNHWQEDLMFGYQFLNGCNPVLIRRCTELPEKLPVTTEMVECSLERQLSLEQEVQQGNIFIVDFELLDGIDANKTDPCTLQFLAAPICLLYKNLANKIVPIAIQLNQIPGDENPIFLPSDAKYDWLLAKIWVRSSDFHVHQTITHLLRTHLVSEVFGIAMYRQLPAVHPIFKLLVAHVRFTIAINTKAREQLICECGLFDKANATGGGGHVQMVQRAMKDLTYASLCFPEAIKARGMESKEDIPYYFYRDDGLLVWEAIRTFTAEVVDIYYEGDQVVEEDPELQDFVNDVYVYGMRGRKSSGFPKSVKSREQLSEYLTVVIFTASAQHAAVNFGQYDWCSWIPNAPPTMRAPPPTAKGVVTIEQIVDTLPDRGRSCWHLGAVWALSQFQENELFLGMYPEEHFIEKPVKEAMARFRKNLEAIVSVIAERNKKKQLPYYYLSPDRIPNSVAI
# Experimental: as §1, §2
# [15] = molecular target: human epithelial 15-lipoxygenase-2 (15-LOX-2) (Homo sapiens (Human), UniProt O15296); assay: Lipoxygenase UV-Vis assay, 15-LOX-2; assay type: biochemical; details: selectivity profiling
# Sequence of human epithelial 15-lipoxygenase-2 (15-LOX-2) (O15296 whole entry): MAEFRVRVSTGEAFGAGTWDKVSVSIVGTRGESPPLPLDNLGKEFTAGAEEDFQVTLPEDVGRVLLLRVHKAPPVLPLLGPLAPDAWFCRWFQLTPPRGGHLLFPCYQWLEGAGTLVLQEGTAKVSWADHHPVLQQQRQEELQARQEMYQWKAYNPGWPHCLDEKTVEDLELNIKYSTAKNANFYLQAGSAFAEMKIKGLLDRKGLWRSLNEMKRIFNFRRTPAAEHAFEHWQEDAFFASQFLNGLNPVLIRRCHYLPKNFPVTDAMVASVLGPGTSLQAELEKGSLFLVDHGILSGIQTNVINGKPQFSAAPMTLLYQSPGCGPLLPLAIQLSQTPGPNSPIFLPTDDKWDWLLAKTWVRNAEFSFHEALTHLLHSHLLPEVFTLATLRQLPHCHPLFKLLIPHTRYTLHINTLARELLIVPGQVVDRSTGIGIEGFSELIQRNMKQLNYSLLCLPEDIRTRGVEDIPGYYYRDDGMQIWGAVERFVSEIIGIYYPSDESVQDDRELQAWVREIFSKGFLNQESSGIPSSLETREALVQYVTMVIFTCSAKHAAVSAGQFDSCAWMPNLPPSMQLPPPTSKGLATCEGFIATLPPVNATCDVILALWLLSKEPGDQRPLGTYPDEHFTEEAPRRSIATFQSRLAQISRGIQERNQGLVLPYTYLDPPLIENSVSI
# Experimental: as §1, §2
# [16] = male, CD1, mouse, brain, ip, 30 mg/kg
# [17] = male, CD1, mouse, plasma, ip, 30 mg/kg
# [18] = UV-Vis cuvette-based assay in triplicate, 10 μM AA, read-out: IC50 (μM) [±SD (μM)]
# Sequence of human platelet 12-lipoxygenase (12-LOX) (P18054 whole entry): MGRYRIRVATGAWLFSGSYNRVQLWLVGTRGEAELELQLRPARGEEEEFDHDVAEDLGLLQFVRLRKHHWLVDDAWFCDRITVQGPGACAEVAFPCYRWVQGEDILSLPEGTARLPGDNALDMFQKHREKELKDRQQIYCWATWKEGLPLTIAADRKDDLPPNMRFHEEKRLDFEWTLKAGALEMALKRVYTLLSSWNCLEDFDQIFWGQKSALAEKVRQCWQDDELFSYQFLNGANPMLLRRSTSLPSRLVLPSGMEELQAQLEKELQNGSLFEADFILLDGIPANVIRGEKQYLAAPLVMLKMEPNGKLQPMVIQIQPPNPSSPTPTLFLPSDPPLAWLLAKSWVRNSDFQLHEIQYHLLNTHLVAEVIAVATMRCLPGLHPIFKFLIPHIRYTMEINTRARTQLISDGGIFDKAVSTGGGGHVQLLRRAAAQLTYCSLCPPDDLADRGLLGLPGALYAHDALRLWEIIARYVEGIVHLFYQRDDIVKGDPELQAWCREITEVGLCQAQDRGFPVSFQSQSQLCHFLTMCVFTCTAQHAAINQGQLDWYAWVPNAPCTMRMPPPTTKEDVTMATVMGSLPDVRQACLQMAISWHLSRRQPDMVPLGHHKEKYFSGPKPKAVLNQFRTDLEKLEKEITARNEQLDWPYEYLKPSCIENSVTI
compound,measurement,setting,value
"CNc1oc(-c2cccc3ccccc23)nc1C#N [Compound 1, 5-(Methylamino)-2-(naphthalen-1-yl)oxazole-4-carbonitrile]",IC50,[1],> 100 µM
same,cellular protection in HT22 cells,[2]; 5 μM concentration,cellular protection
same,protection against oxidative glutamate toxicity in HT22 cells,[2],protective against oxidative glutamate toxicity; also recorded: dose-dependent protection
same,"infarct size, permanent focal ischemia",[3],significantly reduced infarct size
same,hemorrhage in the ischemic hemisphere of warfarin-treated mice treated with tPA,"[4]; 2 h ischemia, tPA 4 h after onset, 50 mg/kg i.p. concurrently with tPA",significantly reduced
same,hemorrhage in the ischemic hemisphere of warfarin-treated mice,"[4]; 3 h occlusion, 50 mg/kg i.p. 3 h after onset of ischemia",significantly reduced
same,"infarct size, transient focal ischemia",[5]; 10 mg/kg,did not change the infarct
same,"infarct size, transient focal ischemia",[5]; 25 mg/kg,significantly protective
same,"infarct size, transient focal ischemia",[5]; 50 mg/kg,significantly protective
same,Permeability (PAMPA),[6],723 10^−6 cm/s
same,Papp,[7],1.5 ×10⁻⁶ cm/s
same,Mouse Plasma Stability remaining at 2 hours,[8],100%
same,Kinetic Solubility,[9],1.2 µM
same,stability in aqueous solutions,[10],stable
same,AUC(0-inf),[11]; [16],35.5 µM·h
same,Tmax,[11]; [16],30 min
same,half-life,"[11]; male, CD1, mouse, brain, ip, 30 mg/kg, T1/2 (Brain), mouse, 30 mpk IP",~60 min
same,AUC(0-inf),[11]; [17],13 µM·h
same,Cmax,[11]; [17],13.8 µM
same,Tmax,[11]; [17],15 min
same,half-life,"[11]; male, CD1, mouse, plasma, ip, 30 mg/kg, T1/2 (Plasma), mouse, 30 mpk IP",~60 min
same,Cmax (Brain),"[11]; mouse, 30 mpk IP, brain",28.8 µM
same,microsomal stability without NADPH,[12],no degradation
"CNc1oc(-c2ccc3ccccc3c2)nc1C#N [Compound 2, 5-(Methylamino)-2-(naphthalen-2-yl)oxazole-4-carbonitrile]",IC50,[13],> 30 µM
"CNc1oc(-c2cccc3cnccc23)nc1C#N [Compound 3, 2-(Isoquinolin-5-yl)-5-(methylamino)oxazole-4-carbonitrile]",IC50,[13]; [18],> 30 µM
"CNc1oc(-c2cccc3nccnc23)nc1C#N [Compound 6, 5-(Methylamino)-2-(quinoxalin-5-yl)oxazole-4-carbonitrile]",IC50,[13]; [18],> 40 µM
"CNc1oc(-c2cccc(Cl)c2Cl)nc1C#N [Compound 7, 2-(2,3-Dichlorophenyl)-5-(methylamino)oxazole-4-carbonitrile]",IC50,[14],> 100 µM
same,protection against glutamate-induced cell death in HT22 cells,[2]; concentration of 10 μM,some protection
"CNc1oc(-c2ccc(Cl)c(Cl)c2)nc1C#N [Compound 8, 2-(3,4-Dichlorophenyl)-5-(methylamino)oxazole-4-carbonitrile]",protection against glutamate-induced cell death in HT22 cells,[2]; concentrations of 2 to 10,dose-dependent cell protective effect
"CNc1oc(-c2ccc3c(c2)OCCO3)nc1C#N [Compound 9, 2-(2,3-Dihydrobenzo[b][1,4]dioxin-6-yl)-5-(methylamino)oxazole-4-carbonitrile]",IC50,[13]; [18],> 40 µM
"CNc1oc(-c2ccc(-c3ccccc3)cc2)nc1C#N [Compound 11, 2-([1,1′-Biphenyl]-4-yl)-5-(methylamino)oxazole-4-carbonitrile]",12/15-LOX inhibition in words,[13],did not inhibit human 12/15-LOX
same,protection against oxidative glutamate toxicity in HT22 cells,[2],protected HT22 cells against oxidative stress
"CNc1oc(-c2ccc3cc[nH]c3c2)nc1C#N [Compound 13, 2-(1H-indol-6-yl)-5-(methylamino)oxazole-4-carbonitrile]",IC50,[13],> 40 µM
"CC(C)Nc1oc(-c2cccc3ccccc23)nc1C#N [Compound 26, 5-(Isopropylamino)-2-(naphthalen-1-yl)oxazole-4-carbonitrile]",12/15-LOX inhibition in words,[13],significantly reduced the potency
"N#Cc1nc(-c2cccc3ccccc23)oc1NC1CNC1 [Compound 31, 5-(Azetidin-3-ylamino)-2-(naphthalen-1-yl)oxazole-4-carbonitrile]",12/15-LOX inhibition in words,[13],did not inhibit human 12/15-LOX
same,protection against oxidative glutamate toxicity in HT22 cells,[2],protected HT22 cells against oxidative stress
"CNc1sc(-c2cccc3ccccc23)nc1C#N [Compound 32, 5-(methylamino)-2-(naphthalen-1-yl)thiazole-4-carbonitrile]",IC50,[15],> 100 µM
same,IC50,[1],> 40 µM
